From article PMC7717691, “Design, synthesis, and anticonvulsant effects evaluation of nonimidazole histamine H3 receptor antagonists/inverse agonists containing triazole moiety” (Journal of Enzyme Inhibition and Medicinal Chemistry, 2020)
“Also recorded” adds a separate entry of the source. Like-named read-outs stand apart in the source and are kept apart here. Each block holds one compound with its values, some of them ahead of it.

Key:
MES [1] = conditions: cited from earlier work
PTZ [2] = conditions: cited from earlier work
MES-induced convulsions = MES-induced convulsions model; assay type: in vivo; conditions: mice; for protection against MES-induced convulsions (reduction or abolition of THLE): i.p.; for protection against MES-induced convulsions in different doses: Figure 7
Excerpt: Protection for the mice was defined as the reduction or abolition of the tonic hind limb extension (THLE) in the MES model in mice.
Ear stimulation with alternating current (0.2 s, 60 Hz, 50 mA) was used to induce the seizures in mice. The reduction or abolition of the hind limb tonic extension (THLE) of mice was considered protective against the MES-induced seizures[29]^,[48]. […]

[3] = Rotarod test (neurotoxicity); assay type: in vivo; conditions: 10 and 20 mg/kg
Excerpt: To exclude the possibility that the anticonvulsant activity of 3m was connected with sedative effect, we carried out a rotarod test for 3m.

H3R [4] = target: T1, H3R (Homo sapiens, UniProt Q9Y5N1); assay: CRE-driven luciferase reporter gene assay, H3R antagonistic activity; assay type: cell-based; conditions: for % Antagonism 100 nM: 100 nM compound; for % Antagonism 100 nM / % Antagonism 1 μM: HEK-293 cells expressing human H3R, mean ± SD of three experiments; for % Antagonism 1 μM: 1 μM compound
T1 construct: expressed in transfected cells
Experimental: cAMP-response element (CRE) reporter gene assay has been extensively used to evaluate the efficacy of GPCR antagonists or agonists. […] Initially, compounds and positive controls were tested at two concentrations (100 nM and 1 µM) to obtain the preliminary investigation of their H3R antagonistic activities. In the assays, the antagonistic activities was positively correlated with the rise of the fluorescence value and indicated by the % antagonism. For the prominent compounds IC50 values were determined at additional assays.
Human thalamus poly-A RNA (Clontech, Palo Alto, CA, USA) was used to clone the hH3R gene by RT-PCR. DNA PCR primers were designed in the light of the reported human histamine receptor gene sequences (GenBank accession no.AF140538). HEK-293 cells were cultured and transfected for the luciferase assay. The detailed procedures were described in the previous publication.
Stable HEK-293 cells, which had been co-transfected with H3R and pCRE-Luc, were seeded in a 96-well plate overnight, and were grown to 90–95% confluence[43]^,[44]. Then the cells were treated with various concentrations of tested compounds in serum-free DMEM and incubated for 20 min. Cells were then stimulated with 100 nM Histamine in serum-free DMEM containing 2 µM Forskolin and incubated for 4 h at 37 °C. Firefly luciferase assay kits (Ken-real, Shanghai, China) were used to determine the luciferase activity.

intracellular cAMP = assay: Effect of compounds administrated alone on the level of intracellular cAMP; assay type: cell-based; conditions: compound alone; ANOVA followed by Dunnett's test; Figure 2
Excerpt: It is well known that H3R is a GPCR coupled with Gαi. When the ligand (histamine) binds to H3R, the dissociated Gαi inhibits the activity of adenylate cyclase (AC) and down-regulates the level of intracellular cAMP. In this CREs driven luciferase assay, when cells were pre-treated by H3R antagonists, the downregulation of cAMP would be inhibited, and the level of intracellular cAMP would regain to the initial level.

H3R [5] = target: T1, H3R; assay: CRE-luciferase assay, H3R inverse agonist activity (forskolin-stimulated transfected HEK-293 cells); assay type: cell-based; conditions: 10 µM forskolin plus compound; seven concentrations; read-out: H3R inverse agonistic activity EC50
Experimental: The raise of luciferase activity after adding compound represented the inverse agonistic activity. The EC50 was calculated by seven concentrations.

MES [6] = conditions: 10 mg/kg i.p.; ref not printed (Figure 1); cited from earlier work
PTZ-induced convulsions = PTZ-induced convulsions model; assay type: in vivo; conditions: mice, PTZ 85 mg/kg s.c.
Experimental: To investigate the anticonvulsive effects, all the target compounds (3a-3q) were screened in the MES-induced and PTZ-induced convulsion models in mice. Compounds were administered intraperitoneally (i.p.) to mice at dosage of 10 mg/kg in the both models. PIT and valproic sodium (VPA) were used as positive controls in the tests.
PTZ (85 mg/kg) was injected subcutaneously to induce seizures. […] The following are the specific meaning of graded scores: score 0 = normal, score 1 = eyelids or facial twitches, score 2 = agitation with body twisting, score 3 = myo-clonic jerks or rearing, score 4 = turn over into one side position or running violently, and score 5 = turn over into back position, limbs tonic extension, or die during the experiment period.

PTZ [7] = conditions: 10 mg/kg i.p.; ref not printed (Figure 1); cited from earlier work
[8] = test system: human photosensitivity model; conditions: dose ranges of 30–60 mg, alone or in combination with other AEDs; cited from earlier work
[9] = 10 mg/kg, 30 min before stimulation, vs saline group

T1 sequence (Q9Y5N1 whole entry): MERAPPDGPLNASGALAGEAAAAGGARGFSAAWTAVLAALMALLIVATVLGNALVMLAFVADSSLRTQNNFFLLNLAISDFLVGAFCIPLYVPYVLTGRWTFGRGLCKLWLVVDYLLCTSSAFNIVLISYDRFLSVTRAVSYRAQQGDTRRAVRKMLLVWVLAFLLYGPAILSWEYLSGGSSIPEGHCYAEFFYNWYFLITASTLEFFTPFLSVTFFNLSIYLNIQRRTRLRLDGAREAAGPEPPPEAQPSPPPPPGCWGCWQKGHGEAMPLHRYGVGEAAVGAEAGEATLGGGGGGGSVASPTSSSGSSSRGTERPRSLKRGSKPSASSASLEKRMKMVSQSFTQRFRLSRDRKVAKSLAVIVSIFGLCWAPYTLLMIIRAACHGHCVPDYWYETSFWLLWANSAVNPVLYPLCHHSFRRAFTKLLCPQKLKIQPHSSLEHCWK

Structure (SMILES): CCCCCCCOc1ccc2c(c1)-c1nncn1CCO2 [II]
MES (mice) (MES [1]; 10 mg/kg i.p.): protection
PTZ (mice) (PTZ [2]; 30 mg/kg i.p.): protection

% Antagonism 100 nM (H3R [4]): 201.12 ± 12.63%
% Antagonism 1 μM (H3R [4]): 203.92 ± 8.44%
IC50 (H3R [4]; CRE luciferase assay, HEK-293 cells, Table 1): 5.92 nM
EC50 (H3R [5]): 129 nM
melting point: 165 to 167 °C
Structure (SMILES): Clc1ccc(-c2nncn2-c2ccc(OCCCN3CCCCC3)cc2)cc1 [Compound 3m, 1-(3-(4-(3-(4-chlorophenyl)-4H-1,2,4-triazol-4-yl)phenoxy)propyl)piperidine]
protection against MES-induced seizures when co-treated with RAMH (MES-induced convulsions; 10 mg/kg i.p. plus RAMH 10 mg/kg i.p.): fully abrogated; also recorded: lost its original protective effect
protection against MES-induced convulsions (reduction or abolition of THLE) (MES-induced convulsions; [9]): moderate protection
protection against MES-induced convulsions in different doses (MES-induced convulsions): dose dependent
neurotoxicity in rotarod test [3]: no neurotoxicity
effect on the level of cAMP when treated alone (intracellular cAMP): no significant effects

% Antagonism 100 nM (H3R [4]): 54.16 ± 7.33%
% Antagonism 1 μM (H3R [4]): 246.29 ± 21.48%
Structure (SMILES): Clc1ccc(CCCOCCCN2CCCCC2)cc1 [PIT, Pitolisant, reference compound]
MES (rats) (MES [6]): protection
protection against PTZ-induced convulsions (PTZ-induced convulsions; 10 mg/kg i.p.): failed to protect
protection against MES-induced convulsions (reduction or abolition of THLE) (MES-induced convulsions; [9]): moderately
protection against MES-induced convulsions (THLE) (MES-induced convulsions; 20 mg/kg): fully abrogate the tonic hind limb extension; also recorded: fully abrogate the THLE
protection against MES-induced convulsions in different doses (MES-induced convulsions): dose-dependently
PTZ (rats) (PTZ [7]): no protection
EEG profile in the human photosensitivity model [8]: favourable EEG profile in a dose-dependent manner

Structure (SMILES): CCCC(CCC)C(=O)O [VPA, Valproic acid, reference compound]
protection against PTZ-induced convulsions (PTZ-induced convulsions; 300 mg/kg i.p.): full protection
protection against MES-induced convulsions (reduction or abolition of THLE) (MES-induced convulsions; 300 mg/kg): potently

Structure (SMILES): S=C(NC1CCCCC1)N1CCC(c2cnc[nH]2)CC1 [Thioperamide]
MES (mice) (MES [1]; 10 & 15 mg/kg i.p.): protection
PTZ (mice) (PTZ [2]; 7.5 & 15 mg/kg i.p.): protection
